Results from patent US5437980A, “Phenanthridium dye staining of nucleic acids in living cells” (Molecular Probes, Inc., priority 1993, dated 1995).
Entries after “also recorded” stand apart in the source; their conditions may differ.

What was measured:
DNA [1] = assay: Relative DNA binding affinity, YOYO-1 over 5-DAPP/LIVE
living cells [2] = assay: Entry into / staining of living cells, general; format: cell-based; details: general summary; for entry into / staining of live cells: several types of cells
Saccharomyces = assay: Staining of yeast (Example 5); format: cell-based; details: 10 μM dye, 30 min, 37° C.
Experimental: Yeast cells are washed by centrifugation and then resuspended in a solution of 2% glucose and 10 mM Na-HEPES, pH 7.4 to a cell density of between 5×10^5 and 2×10^6 cells/mL optical density at 410 nm (previously calibrated with YPD agar plate colony counts). Sufficient 10 mM stock solution of the 5-DAPP/LIVE dye in DMSO is added to effect a final concentration of 10 μM of the dye in the medium. The suspension is incubated for 30 min at 37° C. then 15 μL are placed between a coverglass and the microscope slide. The cellular fluorescence is observed using fluorescein (long-pass emission) or rhodamine filter sets.

[3] = test system: peripheral blood lymphocytes; assay: Staining of peripheral blood lymphocytes, fluorometer (Example 11); format: cell-based, goat; details: for distribution of dye into nucleus of lymphocytes: on the scale of seconds
Experimental: Peripheral blood lymphocytes (PBL) are isolated from fresh heparinized goat blood and resuspended in buffer consisting of 135 mM NaCl, 5 mM KCl, 20 mM HEPES, 1 mM CaCl2, 1 mM MgCl2, pH 7.4 (HBSS+). The cells are resuspended to 10^6 mL (as determined by direct microscopic count using a standard hemocytometer) in a final volume of 3 mL in the above buffer in a quartz cuvette. 5-DAPP/LIVE dye stocks are prepared to final concentrations of 2 mM in DMSO. 3 μL of the octidium dye stock solution is injected into the cuvette to a final concentration of 2 μM. In a fluorometer, the sample is excited at 520 nm and fluorescence emission is monitored at 600 nm over the time required for the fluorescence signal to become stable. Hexidium, butidium and ethidium bromide are injected into separate samples of PBL to determine the relative rates of uptake for these stains. The volume of dye solution added to the cuvette is corrected by a factor relating the absorbance of the dye to the absorbance of a 2 mM octidium solution.

[4] = test system: epidermal tissue of the bulb, Alium spp.; assay: Staining of plant cell tissue (Example 6); format: cell-based; details: 10 μM dye, 30 min, room temperature
Experimental: A small section of tissue from the bulb is removed with a razor blade. 0.5 mL of a 10 μM solution of the 5-DAPP/LIVE dye in distilled water is dispensed into a small glass dish. The epidermal tissue is cut into sections and placed in the dye solution. The tissue is stained for 30 min at room temperature in the dark then the tissue preparation is mounted in the presence of the dye between a coverglass and the slide.

[5] = test system: 3T3 mouse fibroblast cells; assay: Staining of nuclei in adherent cultured mammalian cells (Example 9); format: cell-based; details: 2 μM dye; for staining distribution, chloroquine-treated cells: group 1, 300 μM chloroquine; for staining distribution, control cells: group 2, no chloroquine; for color of nucleus and cytoplasm: one half hour, long-pass fluorescein filter (red with rhodamine excitation)
Experimental: 3T3 mouse fibroblast cells are grown on coverslips in calf serum-supplemented DMEM medium. The coverslips of cells are washed in HBSS+. 5-DAPP/LIVE dye solutions are prepared to a final concentration of 2 μM in DMEM without serum. One group of 3T3 cells is treated with 300 μM chloroquine (group 1). These cells and control cells (group 2) not treated with chloroquine are incubated at 37° C. for 30 min. The two groups of cells are transferred to DMEM plus 5-DAPP/LIVE. The cells are incubated in the dye-containing medium for 30 min at room temperature and are subsequently washed in HBSS+and viewed by epifluorescence microscopy using a long-pass fluorescein or a rhodamine filter set.

DNA [6] = assay: DNA affinity (Kp) from fluorescence enhancement versus DNA concentration, microtiter plate reader; format: binding; details: comparison in words, Table 1
Experimental: ^1 Fluorescence spectra obtained using a standard ratio of 200 μM
bp of DNA (bases of RNA) to 1 μM dye (standard solution) in a working
buffer (10 mM phosphate, 10% (v/v) ethanol, 1 mM EDTA and 100 mM NaCl), p
7.4. Fluorescence was measured in a Corning 96 U well plate and Cytofluor
sensitivity 4) as a function of DNA concentration from 0-100 μM at a
constant dye concentration of 0.5 μM.
^2 Fluorescence spectra obtained using the same method as above excep
the fluorescence was measured in a Cytofluor ™ 2300 (excitation filter
E (485/620); excitation D (620/640), and a sensitivity 4) as a function o
DNA concentration from 0-30 μM at a constant dye concentration of 0.1
^3 DNA affinity (Kp) determined by linear fitting of plots of
reciprocal fluorescence enhancement versus reciprocal DNA concentration,
as measured on a microtiter plate fluorescence reader (CytoFluor ™,

Bacillus cereus = assay: Relative rate and extent of dye uptake into living Bacillus cereus (Example 2, FIG. 1); format: cell-based; details: 2 μM dye, 23° C., 488 nm excitation, 600 nm emission
Experimental: FIG. 1. Relative Uptake of Dyes into Living Cells. Uptake of ethidium, butidium, hexidium and octidium by Bacillus cereus as described in Example 2.
Bacillus cereus is grown in nutrient broth to log phase, washed by centrifugation, and resuspended in water to a density of 5×10^6 cfu/mL (as determined in Example 1). One centimeter pathlength acrylic cuvettes containing 3 mL of cell suspension are placed in a fluorescence spectrophotometer equipped with a temperature regulated cuvette holder and magnetic stirrer. The suspensions are brought to 23° C. prior to dye addition. To a cuvette of 3 mL bacteria suspension is added 3 μL of 2 mM dye stock solutions in DMSO to give a final dye concentration of 2 μM to produce the maximum attainable fluorescence/cell at the 600 nm emission wavelength (determined as in Example 1). The peak fluorescence excitation and emission wavelengths are determined by scanning the spectrum of the dye in suspensions of Bacillus cereus incubated for 30 min with the dye. Fluorescence intensity of the suspensions is measured using 488 nm excitation and 600 nm emission wavelengths. Sampling of fluorescence is carried out at 5 or 10 Hz until the fluorescence signal appears to stabilize.

mushroom spores = assay: Staining of mushroom spores by fluorescence microscopy (Example 4); format: cell-based, agaric; details: 10-20 μM dye, 30 min, room temperature
Experimental: Spores are rinsed from the gills on the underside of the cap of an agaric using a stream of distilled water. The spores are concentrated by centrifugation for 30 sec at 10,000 rpm in a microcentrifuge then a minimal volume of a 10-20 μM solution of the 5-DAPP/LIVE dye in distilled water is added. The suspension is incubated with the dye for 30 min at room temperature then a 15 μL aliquot of the suspension is mounted on between a coverglass and the slide for viewing in the presence of the dye. The cellular fluorescence is observed on a Zeiss Axioplan fluorescence microscope using fluorescein (long:pass emission) or rhodamine filter sets.

[7] = test system: free-living ciliate and flagellate protozoans; assay: Staining of protozoa (Example 7); format: cell-based; details: 1 μL of 10 mM dye in 1 mL culture, 10 min, ambient temperature
Experimental: 1 μL of 10 mM the 5-DAPP/LIVE dye stock is added to 1 mL of protozoan culture. The medium is incubated for 10 min at ambient temperature. 15 μL of this preparation is mounted with dye between a coverglass and the slide. Using this procedure, the nuclei of most cells of the free-living ciliate and flagellate protozoans are stained under these conditions.

nucleic acids = details: reduced ethidium, Bucana et al. (1986); cited from earlier work
gram-negative bacteria = details: mild conditions; application Ser. No. 08/047,683; cited from earlier work
trypanosome = details: Watkins, J. CHEM SOC. 3059 (1952); Watkins & Woolfe; cited from earlier work
gram-positive bacteria [8] = details: mild conditions; application Ser. No. 08/047,683; cited from earlier work
living cells [9] = details: intact cell membrane; background; cited from earlier work
gram-positive bacteria [10] = assay: Staining of live gram-positive bacteria; format: cell-based; details: general summary
tissue culture cells = assay: Entry into / staining pattern of tissue culture cells; format: cell-based
From the text: In some tissue culture cells, the pattern of staining is different from that observed in plant cells or bacteria. In the former case, cells are usually loaded with a brief pulse of dye, followed by a chase of buffered saline solution. These cells show a pattern of staining first in numerous intracellular compartments; e.g. lysosomes. In addition to staining these organelles first, the dyes also undergo a spectral shift to shorter wavelengths when associated with this "early-labeled compartment." If the same cells are exposed to pulses of higher concentrations of the 5-DAPP/LIVE dyes, the staining appears in the mitochondria (tubular structures that are labeled with rhodamine 123) and then, finally, in the nucleus, where it stains the nucleoli very brightly. Nucleoli are the most prominently stained area of higher eukaryotic cells, while the nuclei and cytosol usually stain in a hazy or punctate pattern in these cells. […] In plant tissues distinct nuclei tend to label uniformly, but there is frequently significant binding of the dye to cell walls. The plant cells are usually dark except for cell walls and nuclei. The characteristic binding morphology obtained using the 5-DAPP/LIVE dyes thus makes them useful in certain circumstances for identifying the type of cell in a mixed population of cells.

SMILES	membrane permeability (living cells [2])	staining distribution and intensity (Saccharomyces)	distribution of dye into nucleus of lymphocytes [3]	cell wall / surface staining [4]	rate of dye loading (Bacillus cereus)	entry into / staining of live cells (living cells [2])	staining of nuclei of protozoans [7]	other results
C[n+]1c(C=C2C=CN(CCC[N+](C)(C)CCC[N+](C)(C)CCCN3C=CC(=Cc4oc5ccccc5[n+]4C)c4ccccc43)c3ccccc32)oc2ccccc21 [YOYO-1, reference compound]	virtual impermeability							DNA binding affinity of YOYO-1 over 5-DAPP/LIVE (DNA [1]): hundred
CCCC[n+]1c(-c2ccccc2)c2cc(N)ccc2c2ccc(N)cc21 [butidium]	limited permeability in most cells	more punctate cytoplasmic inclusions stained	virtually instantaneous	more hazy surface staining	increases with carbon chain length	enters live cells slowly and is usually not very bright	octidium which is better than butidium and ethidium	staining distribution, chloroquine-treated cells [5]: stained throughout, but with a greater relative intensity of staining in the nucleus; staining distribution, control cells [5]: relatively equal staining in the nucleus and cytoplasm; color of nucleus and cytoplasm [5]: orange; binding affinity versus longer chain versions (DNA [6]): higher binding affinity than the tested longer chain versions; fraction of spores brightly stained (mushroom spores): about 10%; staining of spores (in words) (mushroom spores): stains all spores
CCN1c2cc(N)ccc2-c2ccc(N)cc2C1c1ccccc1 (stereo not shown) [dihydrophenanthridine derivative]								nucleic acid binding (nucleic acids): does not bind to nucleic acids
CC[n+]1c(-c2ccccc2)c2cc(N)ccc2c2ccc(N)cc21 [ethidium bromide, reference compound]								increase in fluorescence over time ([3]; 2 μM dye, 520 nm excitation, 600 nm emission): essentially no increase in fluorescence signal over time
CC[n+]1c(-c2ccccc2)c2cc(N)ccc2c2ccc(N)cc21 [ethidium, reference compound]		stains all yeast slightly with a pale red nucleus and hazy red cytoplasm	not ethidium	more hazy surface staining	increases with carbon chain length	does not enter most live cells easily	octidium which is better than butidium and ethidium	staining of live gram-negative bacteria (gram-negative bacteria): does not effectively stain; trypanocidal effectiveness / therapeutic potential (trypanosome): superior to that of other 5-DAPP derivatives with longer alkyl chains; staining of live gram-positive bacteria (gram-positive bacteria [8]): does not effectively stain; suitability for staining of nucleic acids in living cells (living cells [9]): usually not suitable for staining of nucleic acids in living cells in which the cell membrane is intact; fraction of spores entered (mushroom spores): less than 10%
C[n+]1c(-c2ccccc2)c2cc(N)ccc2c2ccc(N)cc21 [methidium]								trypanocidal effectiveness / therapeutic potential (trypanosome): less effective than ethidium
CCCCCCCC[n+]1c(-c2ccccc2)c2cc(N)ccc2c2ccc(N)cc21 [octidium]	marked enhancement of membrane permeability in all systems	somewhat less bright than hexidium staining; also recorded: markedly less cytoplasmic staining than any of the other forms	virtually instantaneous	more hazy surface staining occurs with ethidium and butidium than with hexidium or octidium	increases with carbon chain length	enters cell membranes quickly; also recorded: becomes bright with continued incubation	better than butidium and ethidium	fraction of yeast with stained nuclei (Saccharomyces): less than 100%; nuclear staining / staining [4]: stains identically to hexidium; staining distribution, chloroquine-treated cells [5]: stained throughout, but with a greater relative intensity of staining in the nucleus; staining distribution, control cells [5]: relatively equal staining in the nucleus and cytoplasm; color of nucleus and cytoplasm [5]: orange; fraction of spores brightly stained (mushroom spores): about 10%
Nc1ccc2c(c1)c(-c1ccccc1)[n+](CCc1ccccc1)c1cc(N)ccc21 [phenethidium]	marked enhancement of membrane permeability in all systems					facilitates entry of the 5-DAPP dye into living cells, but at a rate that is typically slower than derivatives in which the substituent is a C4 to C8 alkyl group		entry into gram positive bacteria (gram-positive bacteria [10]): enters gram positive bacteria; time to enter tissue culture cells (tissue culture cells): ≥ 1 h
